Consider 29 compounds from patent US10906915B2, “Substituted pyrazoloazepin-4-ones and their use as phosphodiesterase inhibitors” (LEO Pharma A/S, priority 2016, dated 2021).

SMILES strings stand for the structures.

The target in this assay is human PDE4D catalytic domain (UniProt no. Q08499) (Homo sapiens (Human), UniProt Q08499). The assay can be described thus: PDE4 assay (TR-FRET, FAM-cAMP cleavage). Type of assay: biochemical. As to conditions: human PDE4D catalytic domain; molar concentration giving 50% inhibition of substrate cleavage; read-out: PDE4 IC50 range. The method in brief: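 PDE4D catalytic domain ([…]) was incubated with unlabelled cAMP plus FAM-cAMP and titrated compound, stopped with binding buffer of metal-ion nanoparticles and Tb donor. AMP generation read by TR-FRET; IC50 as 50% inhibition of cleavage versus controls, reported as nM ranges.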
Sequence of human PDE4D catalytic domain (Q08499 380-740 limits assumed): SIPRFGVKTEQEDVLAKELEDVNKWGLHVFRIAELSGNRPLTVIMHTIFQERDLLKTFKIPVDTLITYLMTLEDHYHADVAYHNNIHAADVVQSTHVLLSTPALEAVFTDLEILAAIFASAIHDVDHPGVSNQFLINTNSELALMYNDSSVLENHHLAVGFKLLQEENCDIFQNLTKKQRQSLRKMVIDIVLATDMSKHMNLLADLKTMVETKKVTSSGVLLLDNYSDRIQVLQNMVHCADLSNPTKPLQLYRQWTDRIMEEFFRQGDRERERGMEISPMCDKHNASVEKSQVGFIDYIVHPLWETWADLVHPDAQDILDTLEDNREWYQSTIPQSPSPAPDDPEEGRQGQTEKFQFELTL
(TR-FRET usually uses a lanthanide donor and a delayed reading to cut background.)
On to `CCc1nn(CCCOC(=O)c2cccc(S(=O)(=O)CC)c2)c2c1C(=O)NCC1(CCOCC1)C2` [Example 114, 3-(3-ethyl-4-oxo-spiro[6,8-dihydro-5H-pyrazolo[4,3-c]azepine-7,4′-tetrahydropyran]-1-yl)propyl 3-ethylsulfonylbenzoate], for which the IC50 (commonly the midpoint of a concentration-inhibition curve) is under 100 nM.
In the case of `CCc1nn(CCCOC(=O)c2ccc(S(=O)(=O)CC)cc2)c2c1C(=O)NCC1(CCOCC1)C2` [Example 115, 3-(3-ethyl-4-oxo-spiro[6,8-dihydro-5H-pyrazolo[4,3-c]azepine-7,4′-tetrahydropyran]-1-yl)propyl 4-ethylsulfonylbenzoate], the IC50 was under 100 nM.
As to `CCc1nn(CCCOC(=O)c2cccc(S(=O)(=O)NC)c2)c2c1C(=O)NCC1(CCOCC1)C2` [Example 116, 3-(3-ethyl-4-oxo-spiro[6,8-dihydro-5H-pyrazolo[4,3-c]azepine-7,4′-tetrahydropyran]-1-yl)propyl 3-(methylsulfamoyl) benzoate], the IC50 was under 100 nM.
As for `CCc1nn(CCCOC(=O)c2ccc(S(=O)(=O)NC)cc2)c2c1C(=O)NCC1(CCOCC1)C2` [Example 117, 3-(3-ethyl-4-oxo-spiro[6,8-dihydro-5H-pyrazolo[4,3-c]azepine-7,4′-tetrahydropyran]-1-yl)propyl 4-(methylsulfamoyl) benzoate], the IC50 is under 100 nM.
For the compound `CCc1nn(CCCOC(=O)c2ccc(OC)c(C(F)(F)F)c2)c2c1C(=O)NCC1(CCOCC1)C2` [Example 118, 3-(3-ethyl-4-oxo-spiro[6,8-dihydro-5H-pyrazolo[4,3-c]azepine-7,4′-tetrahydropyran]-1-yl)propyI 4-methoxy-3-(trifluoromethyl)benzoate], the IC50 was under 100 nM.
Turning to `CCc1nn(CCCOC(=O)c2cc(OC)ccc2C(F)(F)F)c2c1C(=O)NCC1(CCOCC1)C2` [Example 119, 3-(3-ethyl-4-oxo-spiro[6,8-dihydro-5H-pyrazolo[4,3-c]azepine-7,4′-tetrahydropyran]-1-yl)propyl 5-methoxy-2-(trifluoromethyl)benzoate], the IC50 is under 100 nM.
Then `CCc1nn(CCCOC(=O)c2cc(OC)cc(C(F)(F)F)c2)c2c1C(=O)NCC1(CCOCC1)C2` [Example 120, 3-(3-ethyl-4-oxo-spiro[6,8-dihydro-5H-pyrazolo[4,3-c]azepine-7,4′-tetrahydropyran]-1-yl)propyl 3-methoxy-5-(trifluoromethyl)benzoate], with under 100 nM; and `CCc1nn(CCCOC(=O)c2ccc(Cl)cc2C(F)(F)F)c2c1C(=O)NCC1(CCOCC1)C2` [Example 121, 3-(3-ethyl-4-oxo-spiro[6,8-dihydro-5H-pyrazolo[4,3-c]azepine-7,4′-tetrahydropyran]-1-yl)propyl 4-chloro-2-(trifluoromethyl)benzoate], with under 100 nM.
For `CCc1nn(CCCOC(=O)c2ccc(Cl)c(C(F)(F)F)c2)c2c1C(=O)NCC1(CCOCC1)C2` [Example 122, 3-(3-ethyl-4-oxo-spiro[6,8-dihydro-5H-pyrazolo[4,3-c]azepine-7,4′-tetrahydropyran]-1-yl)propyl 4-chloro-3-(trifluoromethyl)benzoate], the IC50 was under 100 nM.
In the case of `CCc1nn(CCCOC(=O)c2cccc(C(F)(F)F)c2Cl)c2c1C(=O)NCC1(CCOCC1)C2` [Example 123, 3-(3-ethyl-4-oxo-spiro[6,8-dihydro-5H-pyrazolo[4,3-c]azepine-7,4′-tetrahydropyran]-1-yl)propyl 2-chloro-3-(trifluoromethyl)benzoate], the IC50 was under 100 nM.
Consider `CCc1nn(CCCOC(=O)c2cc(Cl)ccc2C(F)(F)F)c2c1C(=O)NCC1(CCOCC1)C2` [Example 124, 3-(3-ethyl-4-oxo-spiro[6,8-dihydro-5H-pyrazolo[4,3-c]azepine-7,4′-tetrahydropyran]-1-yl)propyl 5-chloro-2-(trifluoromethyl)benzoate], for which the IC50 is under 100 nM.
Then `CCc1nn(CCCOC(=O)c2ccc(C(F)(F)F)c(Cl)c2)c2c1C(=O)NCC1(CCOCC1)C2` [Example 125, 3-(3-ethyl-4-oxo-spiro[6,8-dihydro-5H-pyrazolo[4,3-c]azepine-7,4′-tetrahydropyran]-1-yl)propyl 3-chloro-4-(trifluoromethyl)benzoate], with under 100 nM.
Then `CCc1nn(CCCOC(=O)c2ccc(C(F)(F)F)cc2Cl)c2c1C(=O)NCC1(CCOCC1)C2` [Example 126, 3-(3-ethyl-4-oxo-spiro[6,8-dihydro-5H-pyrazolo[4,3-c]azepine-7,4′-tetrahydropyran]-1-yl)propyl 2-chloro-4-(trifluoromethyl)benzoate], with under 100 nM; and `CCc1nn(CCCOC(=O)c2cc(Cl)cc(C(F)(F)F)c2)c2c1C(=O)NCC1(CCOCC1)C2` [Example 127, 3-(3-ethyl-4-oxo-spiro[6,8-dihydro-5H-pyrazolo[4,3-c]azepine-7,4′-tetrahydropyran]-1-yl)propyl 3-chloro-5-(trifluoromethyl)benzoate], with under 100 nM.
Then `CCc1nn(CCCOC(=O)c2cc(C(F)(F)F)ccc2Cl)c2c1C(=O)NCC1(CCOCC1)C2` [Example 128, 3-(3-ethyl-4-oxo-spiro[6,8-dihydro-5H-pyrazolo[4,3-c]azepine-7,4′-tetrahydropyran]-1-yl)propyl 2-chloro-5-(trifluoromethyl)benzoate], with under 100 nM.
For the compound `CCc1nn(CCCOC(=O)c2cccc(S(=O)(=O)C(C)C)c2)c2c1C(=O)NCC1(CCOCC1)C2` [Example 129, 3-(3-ethyl-4-oxo-spiro[6,8-dihydro-5H-pyrazolo[4,3-c]azepine-7,4′-tetrahydropyran]-1-yl)propyl 3-isopropylsulfonylbenzoate], the concentration for half-maximal inhibition (IC50) is under 100 nM.
Take `CCc1nn(CCCOC(=O)c2ccc(S(=O)(=O)C(C)C)cc2)c2c1C(=O)NCC1(CCOCC1)C2` [Example 130, 3-(3-ethyl-4-oxo-spiro[6,8-dihydro-5H-pyrazolo[4,3-c]azepine-7,4′-tetrahydropyran]-1-yl)propyl 4-isopropylsulfonylbenzoate]: the IC50 is under 100 nM.
Take `CCc1nn(CCCOC(=O)c2ccc(S(=O)(=O)N(C)C)cc2)c2c1C(=O)NCC1(CCOCC1)C2` [Example 131, 3-(3-ethyl-4-oxo-spiro[6,8-dihydro-5H-pyrazolo[4,3-c]azepine-7,4′-tetrahydropyran]-1-yl)propyl 4-(dimethylsulfamoyl) benzoate]: the IC50 is under 100 nM.
Turning to `CCc1nn(CCCOC(=O)c2ccc(S(=O)(=O)C3CCCC3)cc2)c2c1C(=O)NCC1(CCOCC1)C2` [Example 132, 3-(3-ethyl-4-oxo-spiro[6,8-dihydro-5H-pyrazolo[4,3-c]azepine-7,4′-tetrahydropyran]-1-yl)propyl 4-cyclopentylsulfonyl-benzoate], the IC50 lay within 100 to 500 nM.
Turning to `CCc1nn(CCCOC(=O)c2ccc(C(F)(F)F)cc2C(F)(F)F)c2c1C(=O)NCC1(CCOCC1)C2` [Example 135, 3-(3-ethyl-4-oxo-spiro[6,8-dihydro-5H-pyrazolo[4,3-c]azepine-7,4′-tetrahydropyran]-1-yl)propyl 2,4-bis(trifluoromethyl) benzoate], the IC50 is under 100 nM.
The same measure for `CCc1nn(CCCOC(=O)c2ccc(C(F)(F)F)c(C(F)(F)F)c2)c2c1C(=O)NCC1(CCOCC1)C2` [Example 136, 3-(3-ethyl-4-oxo-spiro[6,8-dihydro-5H-pyrazolo[4,3-c]azepine-7,4′-tetrahydropyran]-1-yl)propyl 3,4-bis(trifluoromethyl) benzoate]: under 100 nM; for `CCc1nn(CCCOC(=O)c2ccc(C(N)=O)cc2)c2c1C(=O)NCC1(CCOCC1)C2` [Example 140, 3-(3-ethyl-4-oxo-spiro[6,8-dihydro-5H-pyrazolo[4,3-c]azepine-7,4′-tetrahydropyran]-1-yl)propyl 4-carbamoylbenzoate]: under 100 nM; for `CCc1nn(CCCOC(=O)c2ccc(C(=O)NC)cc2)c2c1C(=O)NCC1(CCOCC1)C2` [Example 141, 3-(3-ethyl-4-oxo-spiro[6,8-dihydro-5H-pyrazolo[4,3-c]azepine-7,4′-tetrahydropyran]-1-yl)propyl 4-(methylcarbamoyl)benzoate]: under 100 nM.
As to `CCNC(=O)c1ccc(C(=O)OCCCn2nc(CC)c3c2CC2(CCOCC2)CNC3=O)cc1` [Example 142, 3-(3-ethyl-4-oxo-spiro[6,8-dihydro-5H-pyrazolo[4,3-c]azepine-7,4′-tetrahydropyran]-1-yl)propyl 4-(ethylcarbamoyl)benzoate], the IC50 is under 100 nM.
Then `CCc1nn(CCCOC(=O)c2ccc(C(=O)N(C)C)cc2)c2c1C(=O)NCC1(CCOCC1)C2` [Example 143, 3-(3-ethyl-4-oxo-spiro[6,8-dihydro-5H-pyrazolo[4,3-c]azepine-7,4′-tetrahydropyran]-1-yl)propyl 4-(dimethylcarbamoyl)-benzoate], with 100 to 500 nM; and `CCc1nn(CCCOC(=O)c2ccc(C(=O)NC(C)C)cc2)c2c1C(=O)NCC1(CCOCC1)C2` [Example 144, 3-(3-ethyl-4-oxo-spiro[6,8-dihydro-5H-pyrazolo[4,3-c]azepine-7,4′-tetrahydropyran]-1-yl)propyl 4-(isopropylcarbamoyl)-benzoate], with under 100 nM; and `CCc1nn(CCCOC(=O)c2ccc(C(=O)N3CCCC3)cc2)c2c1C(=O)NCC1(CCOCC1)C2` [Example 145, 3-(3-ethyl-4-oxo-spiro[6,8-dihydro-5H-pyrazolo[4,3-c]azepine-7,4′-tetrahydropyran]-1-yl)propyl 4-(pyrrolidine-1-carbonyl)benzoate], with 100 to 500 nM.
Turning to `CCc1nn(CCCOC(=O)c2ccc(C(=O)N3CCCCC3)cc2)c2c1C(=O)NCC1(CCOCC1)C2` [Example 146, 3-(3-ethyl-4-oxo-spiro[6,8-dihydro-5H-pyrazolo[4,3-c]azepine-7,4′-tetrahydropyran]-1-yl)propyl 4-(piperidine-1-carbonyl)benzoate], the IC50 is under 100 nM.
`CCc1nn(CCCOC(=O)c2ccc(C(=O)N3CCOCC3)cc2)c2c1C(=O)NCC1(CCOCC1)C2` [Example 147, 3-(3-ethyl-4-oxo-spiro[6,8-dihydro-5H-pyrazolo[4,3-c]azepine-7,4′-tetrahydropyran]-1-yl)propyl 4-(morpholine-4-carbonyl)benzoate]: the IC50 fell in the range of 100 to 500 nM.
